One compound from ChEMBL document CHEMBL5390254, “Discovery and Optimization of Novel hDHODH Inhibitors for the Treatment of Inflammatory Bowel Disease” (J Med Chem, 2023) can be followed below.

The data set can be described thus: 1-octanol/water partition coefficient, logP of the compound at 2 mg by UPLC analysis. It is filed as physicochemical.

In turn, `Nc1nc(-c2cn(Cc3c(F)cccc3F)c3ncccc23)ncc1C1CC1` had a logP of 5.1.

By logP is commonly meant a log measure of how a compound divides between an organic and an aqueous phase. High values mean higher lipophilicity, low ones lower lipophilicity.
